Laboratory results as given in ChEMBL document CHEMBL1201862, “PubChem BioAssay data set” (2004).
Calls of active or inactive are those of the source. Cut-off read from the data, not from the text of the source: actives have a measured IC50 and inactives only a lower limit.

Target: Envelope glycoprotein gp160 (Human immunodeficiency virus 1, UniProt Q6QLK5)
Test: inhibitors of HIV fusion peptide binding, primary screen, biochemical, uHTS, fluorescence dequenching (AID 1986)

Chain of Envelope glycoprotein gp160 (Q6QLK5 whole entry, the tested form may be a part): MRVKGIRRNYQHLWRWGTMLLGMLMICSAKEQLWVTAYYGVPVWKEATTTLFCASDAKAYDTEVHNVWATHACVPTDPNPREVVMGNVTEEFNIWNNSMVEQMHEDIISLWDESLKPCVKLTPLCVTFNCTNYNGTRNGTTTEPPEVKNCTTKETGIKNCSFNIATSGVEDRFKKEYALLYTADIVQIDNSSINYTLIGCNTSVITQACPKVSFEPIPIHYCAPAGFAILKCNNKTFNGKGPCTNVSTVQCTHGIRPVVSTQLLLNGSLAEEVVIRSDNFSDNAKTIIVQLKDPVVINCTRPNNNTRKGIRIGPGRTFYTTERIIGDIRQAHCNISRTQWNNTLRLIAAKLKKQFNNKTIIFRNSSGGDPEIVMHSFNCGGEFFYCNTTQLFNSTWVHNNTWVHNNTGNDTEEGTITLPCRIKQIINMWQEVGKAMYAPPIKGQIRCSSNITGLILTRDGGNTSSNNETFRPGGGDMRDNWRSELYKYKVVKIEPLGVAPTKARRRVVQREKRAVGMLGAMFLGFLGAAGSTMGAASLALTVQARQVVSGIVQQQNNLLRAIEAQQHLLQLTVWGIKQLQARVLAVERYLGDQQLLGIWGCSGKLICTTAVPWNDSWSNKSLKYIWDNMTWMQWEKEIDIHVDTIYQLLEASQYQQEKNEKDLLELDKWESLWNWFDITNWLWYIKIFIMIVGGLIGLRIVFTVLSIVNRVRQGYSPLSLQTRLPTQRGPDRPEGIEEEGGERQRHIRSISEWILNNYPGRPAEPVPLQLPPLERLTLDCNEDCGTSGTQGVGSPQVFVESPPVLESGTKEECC

| Structure (SMILES) | IC50 |
| --- | --- |
| O=C(O)c1ccccc1NS(=O)(=O)c1ccc(NNC(=S)Nc2ccc(OC(F)F)cc2)c([N+](=O)[O-])c1 | 8.21 µM (active) |
| O=C(O)CN1C(=O)/C(=C\c2cccc(OCc3ccc(Cl)cc3Cl)c2)SC1=S | 13.1 µM (active) |
